US12134607B2, “Crystals of tetrahydronaphthyl urea derivative” (MOCHIDA PHARMACEUTICAL CO., LTD., priority 2017, dated 2024)
≈ marks a conversion by molar mass, not a printed value.

How the values were obtained:
Storage stability test = assay type: physicochemical
Protocol: For the stability test, approximately 20 mg of the test sample was stored at 25° C./60% RH or at 40° C./75% RH in open or closed condition for 1 month using a small environmental tester SH-641 (manufactured by Espec), and changes in purity and in crystalline form were observed.
For purity measurement, equipment of Waters ACQUITY UPLC H-Class (manufactured by Waters) and column of Waters ACQUITY BEH C18 (particle diameter […], size 2.1×50 mm) are used. For the mobile phase, 10 mmol/L ammonium bicarbonate buffer pH 9.0 and acetonitrile were used; and the test sample solution at 100 μg/mL in the mixture solvent of THF (tetrahydrofuran):10 mmol/L ammonium bicarbonate buffer (20:80) was prepared.
(Test Example 2) Storage Stability Test
The type I (Example 2), III (Example 3), V (Example 4) and VI (Example 5) crystals (each about 20 mg) of 1-((1R,2R)-2-hydroxy-4,4-dimethyl-1,2,3,4-tetrahydronaphthalen-1-yl)-3-(5-methyl-6-(2-methylpyrimidin-5-yl)-2-phenylpyridin-3-yl)urea obtained in the above Examples 2 to 5 were stored in glass bottles under the respective conditions described in Table 7. After completion of the storage period, the retrieved sample was confirmed on the purity by high performance liquid chromatography and on the crystal form by powder X-ray diffraction analysis as in the Examples.

[1] = Photostability test according to ICH Q1B; assay type: physicochemical; details: for Stability against light: result in words
Protocol: (Test Example 3) Photostability Test
The type I (Example 2), III (Example 3), V (Example 4), and VI (Example 5) crystals (each about 20 mg) of 1-((1R,2R)-2-hydroxy-4,4-dimethyl-1,2,3,4-tetrahydronaphthalen-1-yl)-3-(5-methyl-6-(2-methylpyrimidin-5-yl)-2-phenylpyridin-3-yl)urea obtained in the above Examples 2 to 5 were placed in a transparent plastic container and covered, and were subjected to photostability test according to the ICH Q1B (Guidelines on Photostability Testing of New Active Substances and Medicinal Products) described in Table 8 (Here, the photostability test samples were stored at about 25° C. under separate lamps which respectively emits visible light and UV-A light so that the total light exposure should be 1.2 million lux hours and 200 W hours/m^2 or more, respectively. A 5-day study should be designated as “0.5 ICH” and a 10-day study as “1 ICH”). […] After completion of the test, the retrieved sample was confirmed on the purity by high performance liquid chromatography and on the crystal form by powder X-ray diffraction analysis as in the Examples.

[2] = Determination of equilibrium solubility in phosphate buffer solution with pH 6.8; assay type: physicochemical; details: pH 6.8 phosphate buffer, 37° C., mean value of three measurements
Description: (Test Example 1) Determination of Equilibrium Solubility (Determination of Solubility in Phosphate Buffer Solution with pH 6.8)
Each of the equilibrium solubilities (solubility in phosphate buffer solution with pH 6.8) of Type I (Example 2), III (Example 3), V (Example 4) and VI crystals (Example 5) of 1-((1R,2R)-2-hydroxy-4,4-dimethyl-1,2,3,4-tetrahydronaphthalen-1-yl)-3-(5-methyl-6-(2-methylpyrimidin-5-yl)-2-phenylpyridin-3-yl)urea obtained in the above (Example 2) to (Example 5) was determined as follows:
Water was added a weighed potassium dihydrogen phosphate of 2.7 g to make 100 mL volume to prepare 0.2 mol/L potassium dihydrogen phosphate solution. Water was added a weighed disodium hydrogen phosphate […] of 7.2 g to make 100 mL volume to prepare 0.2 mol/L disodium hydrogen phosphate solution. A pH 6.8 phosphate buffer solution was prepared by diluting a mixture of 0.2 mol/L potassium dihydrogen phosphate solution (14.8 mL) and 0.2 mol/L disodium hydrogen phosphate solution (10.0 mL) with water (173.6 mL).
Approximately 1 mg of the each crystal from (Example 2) to (Example 5) was weighed into a screw tube, and a pH 6.8 phosphate buffer solution (1 mL) was added. An isothermal shaker (M-BR-022UP) was used to incubate the sample at 37° C. and 1000 rpm for 24 hours. 100 μL solution were sampled at 1, 2, 6, and 24 hours after the start of incubation, and were filtered using a centrifuge (HITACHI, Himac cF 9RX, at 25° C., at 1500 rpm, for 30 seconds) with a filter (Millipore: Multiscreen, MSSLBPC10) so as to remove insoluble materials. A 20 μL of the filtrate was quantified, and diluted with a solution (180 μL, pH 9.0) of 20 vol % tetrahydrofuran and 80 vol % ammonium bicarbonate aqueous solution (10 mM). A 10 μL of the prepared solution was quantified, and diluted with a solution (190 μL, pH 9.0) of 20 vol % tetrahydrofuran and 80 vol % ammonium bicarbonate aqueous solution (10 mM). The prepared solution was analyzed by ultra performance liquid chromatography (UPLC) under the following measurement conditions, and the concentration of the compound in the solution was calculated based on a previously prepared calibration curve. Three times of measurements were made for each example compound, and the mean values and standard deviations of the three measurements are shown as a result in Table 6.
<UPLC measurement conditions> Equipment: ACQUITY UPLC H-Class (Waters) Detector: PDA (200-500 nm) Column: BEH C18 2.1×50 mm Measurement wavelength: 270 nm Column temperature: 40° C. Injection amount: 10 μL Mobile phase: • Solvent A, acetonitrile; • Solvent B, 10 mM ammonium bicarbonate aqueous solution (pH 9.0) Gradient conditions: […]

human TrkA protein = human TrkA protein (Homo sapiens (Human), UniProt P04629); experiment: Evaluation on binding activity against human TrkA protein (TrkA LanthaScreen Eu Kinase Binding Assay); details: TrkA enzyme, Kinase Tracer 236, TR-FRET
Protocol: (Pharmacology Experiment 1): Evaluation on Binding Activity Against Human TrkA Protein
Measurements were made using TrkA LanthaScreen™ Eu Kinase Binding Assay (ThermoFisher SCIENTIFIC). Into 384 well plates (Corning), a 2.5 μL solution having each concentration of the test compound (1) diluted in Kinase buffer (ThermoFisher SCIENTIC) and a 2.5 μL having 15 nM TrkA enzyme (ThermoFisher SCIENTIFIC) were added. In addition, a 5 μL having 3 nM Eu-anti-His Tag […] (ThermoFisher SCIENTIFIC) and 5 μL having 30 nM Kinase™ Tracer 236 (ThermoFisher SCIENTIFIC) were added, and allowed to react at room temperature for 60 minutes. After the reaction, the fluorescence ratio was calculated as the binding amount of the test compound (1) with TrkA enzyme, by measuring the fluorescence intensity (Emission wavelength 615 nm) and TR-FRET (Emission wavelength 665 nm) of Europium by the excitation wavelength of 340 nm using EnVision 2100 (PerkinElmer). […]
The inhibitory activity of each crystal of the test compound (1), which is 1-((1R,2R)-2-hydroxy-4,4-dimethyl-1,2,3,4-tetrahydronaphthalen-1-yl)-3-(5-methyl-6-(2-methylpyrimidin-5-yl)-2-phenylpyridin-3-yl)urea can be assessed by IC50 value.

[3] = Pharmacokinetic study, single oral dose in rats; assay type: in vivo; details: male Crl:CD (SD) rats, oral single dose 600 mg/kg in 0.5 w/v % methylcellulose 400
Protocol: (Pharmacology Experiment 5): Pharmacokinetic Study
Plasma sample obtained by centrifugation of blood (12000×g, for 5 minutes, at 4° C.) was measured to determine plasma concentration of the test compound using high performance liquid chromatography/mass spectrometry. Similarly, concentrations of standard solutions containing the test compound at known concentrations (0.001, 0.002, 0.005, 0.01, 0.02, 0.05, 0.1, 0.2, 0.5, 1, 2, and 5 μg/mL) were measured. And then, the plasma concentration (μg/mL) of the compound (1) was calculated from the prepared calibration curve to obtain the maximum plasma concentration (Cmax (μg/mL)) and the area under the plasma concentration-time curve (AUC (μg·hr/mL)). Measurement conditions can be appropriately adjusted by a person skilled in the art.

[4] = 25° C./60% RH, closed for 1 month
[5] = 25° C./60% RH, open for 1 month
[6] = 40° C./75% RH, closed for 1 month
[7] = 40° C./75% RH, open for 1 month
[8] = Shielded from light by aluminum foil, 0.5 ICH
[9] = Shielded from light by aluminum foil, 1 ICH
[10] = Shielded from light by aluminum foil, Before the test

human TrkA protein, sequence (P04629 33-796): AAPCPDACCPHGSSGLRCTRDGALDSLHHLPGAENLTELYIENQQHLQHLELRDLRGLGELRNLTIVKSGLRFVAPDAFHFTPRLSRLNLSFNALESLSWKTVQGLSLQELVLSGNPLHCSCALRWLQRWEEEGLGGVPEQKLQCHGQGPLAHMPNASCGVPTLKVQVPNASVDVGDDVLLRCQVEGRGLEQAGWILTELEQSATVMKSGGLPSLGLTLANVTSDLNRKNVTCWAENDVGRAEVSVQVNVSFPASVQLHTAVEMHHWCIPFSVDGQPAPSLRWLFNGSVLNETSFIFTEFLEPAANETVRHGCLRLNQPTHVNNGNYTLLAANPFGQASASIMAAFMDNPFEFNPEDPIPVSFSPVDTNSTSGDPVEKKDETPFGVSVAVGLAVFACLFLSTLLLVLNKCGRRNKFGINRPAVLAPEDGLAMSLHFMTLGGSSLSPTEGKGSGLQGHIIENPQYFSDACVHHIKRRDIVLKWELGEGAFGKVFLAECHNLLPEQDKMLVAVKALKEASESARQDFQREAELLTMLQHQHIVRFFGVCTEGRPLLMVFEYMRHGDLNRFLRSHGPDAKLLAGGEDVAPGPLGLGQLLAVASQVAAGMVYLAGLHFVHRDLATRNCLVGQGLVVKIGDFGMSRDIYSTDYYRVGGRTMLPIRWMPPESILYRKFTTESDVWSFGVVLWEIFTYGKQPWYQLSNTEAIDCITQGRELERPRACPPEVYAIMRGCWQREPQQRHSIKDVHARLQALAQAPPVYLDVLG

Cc1ncc(-c2nc(-c3ccccc3)c(NC(=O)N[C@@H]3c4ccccc4C(C)(C)C[C@H]3O)cc2C)cn1 [Example 3, 1-((1R,2R)-2-hydroxy-4,4-dimethyl-1,2,3,4-tetrahydronaphthalen-1-yl)-3-(5-methyl-6-(2-methylpyrimidin-5-yl)-2-phenylpyridin-3-yl)urea]
Chemical purity (%) (Storage stability test; [4]): 100.00% | Crystalline form after completion of storage period (Storage stability test; [4]): Type III crystal | Chemical purity (%) (Storage stability test; [5]): 100.00% | Crystalline form after completion of storage period (Storage stability test; [5]): Type III crystal | Chemical purity (%) (Storage stability test; [6]): 100.00% | Crystalline form after completion of storage period (Storage stability test; [6]): Type III crystal | Chemical purity (%) (Storage stability test; [7]): 100.00% | Crystalline form after completion of storage period (Storage stability test; [7]): Type III crystal | Chemical purity (%) (Storage stability test; Before the test): 100.00% | Crystalline form after completion of storage period (Storage stability test; Before the test): Type III crystal | Chemical purity (%) ([1]; Exposure, 0.5 ICH (5-day)): 100.0% | Crystalline form after completion of storage period ([1]; Exposure, 0.5 ICH (5-day)): Type III crystal | Chemical purity (%) ([1]; Exposure, 1 ICH (10-day)): 100.0% | Crystalline form after completion of storage period ([1]; Exposure, 1 ICH (10-day)): Type III crystal | Chemical purity (%) ([1]; Exposure, Before the test): 100.0% | Crystalline form after completion of storage period ([1]; Exposure, Before the test): Type III crystal | Chemical purity (%) [1, 8]: 100.0% | Crystalline form after completion of storage period [1, 8]: Type III crystal | Chemical purity (%) [1, 9]: 100.0% | Crystalline form after completion of storage period [1, 9]: Type III crystal | Chemical purity (%) [1, 10]: 100.0% | Crystalline form after completion of storage period [1, 10]: Type III crystal | Stability against light ([1]; listed as type III crystal): stable against light | Solubility [2]: 66.0 µg/mL (≈ 134 µM) | IC50 (human TrkA protein): ≤ 50 nM

Cc1ncc(-c2nc(-c3ccccc3)c(NC(=O)N[C@@H]3c4ccccc4C(C)(C)C[C@H]3O)cc2C)cn1 [Example 4, 1-((1R,2R)-2-hydroxy-4,4-dimethyl-1,2,3,4-tetrahydronaphthalen-1-yl)-3-(5-methyl-6-(2-methylpyrimidin-5-yl)-2-phenylpyridin-3-yl)urea]
Chemical purity (%) (Storage stability test; [4]): 99.8% | Crystalline form after completion of storage period (Storage stability test; [4]): Type V crystal | Chemical purity (%) (Storage stability test; [5]): 99.8% | Crystalline form after completion of storage period (Storage stability test; [5]): Type V crystal | Chemical purity (%) (Storage stability test; [6]): 99.8% | Crystalline form after completion of storage period (Storage stability test; [6]): Type V crystal | Chemical purity (%) (Storage stability test; [7]): 99.8% | Crystalline form after completion of storage period (Storage stability test; [7]): Type V crystal | Chemical purity (%) (Storage stability test; Before the test): 99.8% | Crystalline form after completion of storage period (Storage stability test; Before the test): Type V crystal | Moisture absorption (Storage stability test; during the storage period): no moisture absorption was observed | Chemical and physical stability over the test period (Storage stability test; storage for 1 month, result in words): chemically and physically stable | Area Under Plasma Concentration (AUC) [3]: 473 µg·h/mL | Maximum Plasma Concentration (Cmax) [3]: 26.9 µg/mL | Chemical purity (%) ([1]; Exposure, 0.5 ICH (5-day)): 99.8% | Crystalline form after completion of storage period ([1]; Exposure, 0.5 ICH (5-day)): Type V crystal | Chemical purity (%) ([1]; Exposure, 1 ICH (10-day)): 99.8% | Crystalline form after completion of storage period ([1]; Exposure, 1 ICH (10-day)): Type V crystal | Chemical purity (%) ([1]; Exposure, Before the test): 99.9% | Crystalline form after completion of storage period ([1]; Exposure, Before the test): Type V crystal | Chemical purity (%) [1, 8]: 99.9% | Crystalline form after completion of storage period [1, 8]: Type V crystal | Chemical purity (%) [1, 9]: 99.9% | Crystalline form after completion of storage period [1, 9]: Type V crystal | Chemical purity (%) [1, 10]: 99.9% | Crystalline form after completion of storage period [1, 10]: Type V crystal | Stability against light ([1]; listed as type V crystal): stable against light | Solubility [2]: 60.1 µg/mL (≈ 122 µM)
